US20260256772A1, “BENZOTHIAZOLE COMPOUND AND USE THEREOF” (NANJING REJU THERAPEUTICS, INC., priority 2022, published 2026)

Key:
Alzheimer's disease = Alzheimer's disease APP×PS1 transgenic mouse model; assay type: in vivo; conditions: intraperitoneal injection, 11 consecutive weeks, twice a week, FIG. 8
Experimental: In this test example, the efficacy of the compounds of the present disclosure was tested on Alzheimer's disease in an animal model of Alzheimer's disease. Briefly, a transgenic mouse model of APP×PS1 (purchased from Cyagen Biosciences) was selected, and the compound of the present disclosure was administered by intraperitoneal injection for 11 consecutive weeks, twice a week. Alterations in amyloid in the cerebral cortex of the mice were observed.

renal fibrosis = assay: Renal fibrosis animal model (ureter ligation); assay type: in vivo, C57BL/6J mice; conditions: FIG. 11; for serum creatinine (Cr) levels / urea nitrogen (BUN) levels: intraperitoneal (IP) injection from 2nd week of modelling; for pathology: intraperitoneal (IP) injection, kidney Masson staining
Experimental: In this test example, the efficacy of the compound of the present disclosure was tested on renal fibrosis in an animal model of renal fibrosis. Briefly, C57BL/6J mice, male, 7 to 8 weeks old, were used. The mice were anaesthetized, made to lie supine on a foam board, and disinfected with iodophor, and a longitudinal incision was made in the skin in the middle of the lower abdomen to locate the white line of the abdominal muscle, where the abdominal muscle, fascia and peritoneal layer were dissected. After exposing the surgical field, the kidneys were exposed by pushing the stomach and mesentery of the mice to the right side with a gauze soaked with saline. The model of renal fibrosis was constructed by locating the transparent ureter from the renal pelvis along the renal artery, separating the left ureter, ligating the upper ⅓ of the left ureter, suturing the incision layer by layer, and finally disinfecting with iodophor. Dosing via intraperitoneal injection started from the 2nd week of modelling. At the end of the experiment, the mouse serum was collected, and kidney tissues were taken for Masson staining index assay.

diabetic retinopathy = assay: Mouse model of diabetic retinopathy (STZ), retinal Evans blue penetration assay; assay type: in vivo; conditions: intravitreal (IVT), 1 μL of 200 μM at 8 and 9 weeks after STZ, FIG. 4
Experimental: The efficacy of the compounds of the present disclosure was studied in a mouse model of diabetic retinopathy by multiple administrations of streptozotocin (STZ). C57BL/6J mice at 6 to 7 weeks were weighed and their baseline blood glucose was measured (Sino). STZ (Sigma-Alderich) was injected intraperitoneally into the mice at 55 mg/Kg for five consecutive days. Age-matched controls were injected with buffer only. Blood glucose was measured again one week after the last STZ injection. 1 μL of the test compound (200 μM, a suspension formulated in 0.015% polysorbate 80, 0.2% sodium phosphate, 0.75% sodium chloride, pH 7.2) was injected intravitreally into the STZ-treated diabetic C57BL/6J mice at 8 and 9 weeks after STZ administration. 10 weeks after STZ treatment, the retinal Evans blue penetration assay was performed.

osteoarthritis = assay: Osteoarthritis animal model; assay type: in vivo, mice; conditions: intra-articular injection, FIG. 7
Experimental: In this test example, the efficacy of the compounds of the present disclosure was tested on osteoarthritis in an osteoarthritis animal model.
The osteoarthritis animal model was constructed by the following steps. The mice were anesthetized with isoflurane, and fixed. The hair on the right hind limb of the mice was shaved and the skin was disinfected with alcohol, and the skin of the joints was cut. Under an optical microscope, the inside of the right knee joint was incised longitudinally with a blade, without cutting the patellar ligament. The patellar ligament was pulled to one side with constant hemostasis by compression with sterile cotton swabs such that the joint cavity was fully exposed. Saline was added dropwise in time to avoid the drying up of the joint cavity. The excess muscle tissue was gently separated with a blunt forceps to expose the meniscus ligament. The anterior cruciate ligament was found in the depth of the joint cavity and cut with a micro scissor. Then the wound was disinfected with penicillin solution, the muscle was sutured with sterile needle and thread, and the skin tissue was finally sutured. The efficacy of the drug was determined by intra-articular injection administration. At the endpoint of the test, continued pain threshold of the plantar was detected, and the bone joints were stained with safranin fast green.

[1] = tested on: wet-age-related macular degeneration; assay: CNV animal model of wet-age-related macular degeneration; assay type: in vivo, mice; conditions: intravitreal (IVT), FIG. 5
Experimental: In this test example, the efficacy of the compounds of the present disclosure was tested on wet-age-related macular degeneration in a CNV animal model.
Male mice were administered 0.5% probacaine hydrochloride (Alcon) for local anesthesia, and 1% tropicamide to dilate the pupils of the mice. Laser cauterization was performed using a laser photocoagulator (Novus Varia, LUMENIS) with a slit lamp delivery system. And artificially torn adherent glass coverslips were used as contact lenses. Bleeding spots caused by lasers were not included in the statistics. In each experimental group, six mice were analyzed with four impacts per eye to overcome inherent variability.

hypertrophic scars = assay: Rabbit ear hypertrophic scar model; assay type: in vivo, New Zealand white rabbits; conditions: 150 μM, 100 μL injected into each lesion once a week, 4 injections, FIG. 12
Experimental: In this test example, the efficacy of the compounds of the present disclosure was tested on hypertrophic scars in a rabbit ear hypertrophic scar animal model. Briefly, 15 New Zealand white rabbits, male, 3 months old, were used. The New Zealand rabbits were anaesthetized with sodium pentobarbital and six circular full-thickness wounds with a diameter of 10 mm were made on the ventral surface of each ear by removing the epidermis, dermis and perichondrium to expose the cartilage. The rabbits were randomly divided into control, RX001 experimental and RX301 experimental groups. On postoperative day 14, after complete re-epithelialization of the wound surface, the compound (150 μM, 100 μL, dissolved in DMSO solution) or negative control DMSO 100 μL was injected into the center of each lesion from the wound edge once a week for a total of 4 injections. Improvement of scar formation by the drugs was assessed by SEI (Scar Excess Index).

senescent cells = assay: Senescent cell killing, CellTiter-Glo cell viability; assay type: cell-based, human, mouse; conditions: activity of killing senescent cells; cell type not specified
Source text: In this test example, human non-small cell lung cancer cell line (A549 cells), human embryonic lung fibroblast cell line (IMR90 cells), human retinal pigment epithelial cells (RPE cells), mouse chondrocytes, and mouse skin fibroblasts were selected. The above cells were induced by etoposide ([…]) to obtain their senescent cells. The effect of the target compounds on the viability of normal and senescent cells above was examined, thus assessing the specific killing effect of the compounds on senescent cells above.
Briefly, senescent and normal cells above were selected and plated separately (96-well plates). […] 2A to 2E.

aging skin = assay: Aging skin, naturally aging mouse model; assay type: in vivo, C57bl/6J mice; conditions: skin application twice a week for 6 consecutive weeks, FIG. 10
Experimental: In this test example, aged female C57bl/6J mice (22 months old) were used. The drug was administered by skin application twice a week for 6 consecutive weeks.

Structure (SMILES)	Aβ42 pathogenic protein indicators (Alzheimer's disease)	serum creatinine (Cr) levels (renal fibrosis)	urea nitrogen (BUN) levels (renal fibrosis)	pathology (renal fibrosis)	vascular permeability, choroidal vascular leakage (diabetic retinopathy)	vascular permeability, retinal vascular leakage (diabetic retinopathy)	pathology scores of safranin fast green staining (osteoarthritis)	plantar mechanical pain threshold (osteoarthritis)	fluorescence intensity indicators [1]	scar excess index (hypertrophic scars)	IC50 (senescent cells) [µM]	epidermal thickness scores of the skins (aging skin)
CCN1CCN(C(=O)c2nc(N3CCc4cccc(C(=O)Nc5nc6ccccc6s5)c4C3)ccc2-c2cnn(CC34CC5CC(CC(C5)C3)C4)c2C)CC1 [RX001]	statistically significant improvements	statistically significant improvements	statistically significant improvements	statistically significant improvements	improved	improved	statistically significant improvements	statistically significant improvements	statistically significant improvements	statistically significant improvement	0.2 to 1	statistically significant improvements
Cc1c(-c2ccc(N3CCc4cccc(C(=O)Nc5nc6ccccc6s5)c4C3)nc2C(=O)N2CCC(CCOP(=O)(O)O)CC2)cnn1CC12CC3CC(CC(C3)C1)C2 [RX301]	statistically significant improvements	statistically significant improvements	statistically significant improvements	statistically significant improvements	improved	improved	statistically significant improvements	statistically significant improvements	statistically significant improvements	statistically significant improvement	< 0.2	statistically significant improvements
